Test results published in patent US20220296573A1, “NOVEL COMPOUNDS AND PHARMACEUTICAL COMPOSITIONS THEREOF FOR THE TREATMENT OF INFLAMMATORY DISORDERS” (Galapagos NV, priority 2019, published 2022).

Columns and labels:
[1] = system: CL097 triggered IFNα release in human whole blood; experiment: Ex vivo human IFNα release inhibition (whole blood assay); assay type: cell-based; details: CL097 2 μg/mL, 3 h 30 min
Excerpt: (§1) The aim of the assay is to evaluate the activity of compounds of the invention on the activated TLR/IRAK-4 pathway in an ex vivo human whole blood setting. Toll-like receptors (TLRs) are pattern recognition receptors that recognize a wide variety of microbial molecules, called pathogen-associated molecular patterns (PAMPs). Human TLR7 and TLR8 recognize imidazoquinoline compounds (e.g., CL097—CAS n #1026249-18-2) and single stranded RNAs as their natural ligands. Activation of TLRs leads to the production of several cytokines (e.g., IFNα, TNFα, IL-8, IL-6) by the TLR agonist-treated cells, whereas IRAK4 leads to the production of IFNα. Cytokine release is used as readout in this assay and represents a measure for the level of inhibition of the TLR/IRAK-4 pathway by the tested compound. It should be noted that in the context of the complete organism, other sources for these cytokines exist that are not dependent on the TLR/IRAK-4 pathway, such as e.g., macrophages (upon activation of the Fcγ receptor (Yan et al. 2012)) or T cells (upon activation of the T cell receptor (Brehm, Daniels, and Welsh 2005)).
(§2) Blood is collected from healthy volunteers into lithium heparin tubes by venipuncture, then gently inverted several times to prevent clotting and incubated for at least 15 min at 37° C. on a rocking mixer shaker. Then, 100 μL of blood is dispensed into polypropylene 96-well microplate and pre-incubated in duplicate with 0.3% DMSO or test compound at different concentrations (from 30 to 0.01 μM, 3-fold dilutions to get 0.3% DMSO at the final) for 15 min at 37° C. After this pre-incubation, blood is triggered with CL097 (2 μg/mL from 1 mg/mL solution in water; InvivoGen, tlr1-c97) for 3 h 30 min at 37° C. Microtubes are centrifuged at 5000×g for 10 min at 4° C. and approximately 40 μL of plasma are collected into a polystyrene 96-well plate. Plasma can be analyzed freshly, within 30 min after triggering, or frozen at −80° C. Finally, the quantification of IFNα and IFNα were performed in the plasma using AlphaLISA Kit for […] according to the manufacturer's instructions and read on the Ensight (PerkinElmer).
A standard curve was created by plotting on log-log the mean absorbance on the y-axis against the concentration on the x-axis and a 4PL was made through the points. For each blood sample, the IFNα concentrations of the samples were determined from the fit.
Data were then expressed as a percentage of inhibition (PIN) for each replicate using the formula:
With mean IFNα with CL097=mean IFNα concentration of replicate samples triggered with CL097; IFNαsample1=IFNα concentration of sample 1; mean IFNα with vehicle=mean IFNα concentration of replicate samples treated with vehicle.
(§3) Curve fitting for pIC50 determination were generated using mean PIN±sem. Graphs and pIC50 calculations were derived using Prism 5.03 software (GraphPad).

[2] = system: CL097 triggered TNFα release in human whole blood; experiment: Ex vivo human TNFα release inhibition (whole blood assay); assay type: cell-based; details: CL097 2 μg/mL, 3 h 30 min
Excerpt: as §1, §2
For each blood sample, the TNFα concentrations of the samples were determined from the fit. Data were then expressed as a percentage of inhibition (PIN) for each replicate using the formula:
With mean TNFα with CL097=mean TNFα concentration of replicate samples triggered with CL097; TNFαsample1=TNFα concentration of sample 1; mean TNFα with vehicle=mean TNFα concentration of replicate samples treated with vehicle.
as §3

Mouse Hepatocyte = experiment: Metabolic stability in mouse hepatocytes; assay type: in vitro ADME; details: mouse cryopreserved hepatocytes, 1 μM
Method: (§4) The aim of this assay is to determine the metabolic stability of the compound in hepatocytes (cryopreserved) of different species. Low hepatocyte stability may result in the formation of unwanted metabolites, high clearance, and therefore is not desirable.
(§5) A 10 mM stock solution of test compound in DMSO was first diluted in DMSO to 3 mM, and then in modified Krebs-Henseleit buffer (Sigma, K3753) to 5 μM. This compound dilution was added to a suspension of pooled cryopreserved hepatocytes (BioreclamationIVT) at 37° C. under gentle shaking.
(§6) Final reaction conditions were: 1 μM of test compound, 0.03% DMSO, 0.5 million viable hepatocytes/mL, and 75 μL incubation volume.
(§7) Testosterone (1 μM) and 7-hydroxycoumarin (1 μM) were used, respectively as phase I and phase II metabolic reaction controls.
(§8) After 0, 10, 20, 45, 90, 120 and 180 min of incubation, the reaction was terminated with 225 μL of MeCN:MeOH (2:1) containing 100 ng/mL of diclofenac as analytical internal standard. Samples were mixed, centrifuged and the supernatant analyzed by LC-MS/MS.
(§9) The instrument responses (ratios of test compound and internal standard peak areas) were referenced to the zero time point samples (considered as 100%) in order to determine the percentage of compound remaining.
(§10) Plots of percentage compound remaining were used to determine the intrinsic clearance in the hepatocyte incubations using the following equations:
(§11) Scaled Clint [L/h/kg]=Clint [μL/min/10^6 cells]*#(10) cells/g liver*60*(1/10^6) Scaled Clint unbound [L/h/kg]=Clint [L/h/kg]/Fu,inc where: fu,inc equals hepatocyte binding, derived from microsomal binding (fu,mic) by following equation: […]

Human Hepatocyte = experiment: Metabolic stability in human hepatocytes; assay type: in vitro ADME; details: human cryopreserved hepatocytes, 1 μM
Method: as §4, §5, §6, §7, §8, §9, §10, §11

Row | IC50 [1] [µM] | IC50 [2] [µM] | Mouse Hepatocyte stability (Perc. remaining at 90 min) (Mouse Hepatocyte) [Perc.] | Human Hepatocyte stability (Perc. remaining at 90 min) (Human Hepatocyte) [Perc.] | Compound
1 | 0.0001 to 0.5 | – | – | – | COc1cc2nc(C3COCCO3)cn2cc1NC(=O)c1cccn(C2CC2)c1=O (single isomer, unassigned) [Compound 8, 1-cyclopropyl-N-[2-(1,4-dioxan-2-yl)-7-methoxy-imidazo[1,2-a]pyridin-6-yl]-2-oxo-pyridine-3-carboxamide]
2 | 1 to 5 | 1 to 5 | – | – | COc1cc2nc(C3COCCO3)cn2cc1NC(=O)c1cccn(C2CCC2)c1=O (centres unmarked) [Compound 5, 1-cyclobutyl-N-[2-(1,4-dioxan-2-yl)-7-methoxy-imidazo[1,2-a]pyridin-6-yl]-2-oxo-pyridine-3-carboxamide]
3 | 0.5 to 1 | – | – | – | COc1cc2nc(C3CCOCC3)cn2cc1NC(=O)c1cccn(C2CC2)c1=O [Compound 3, (1-cyclopropyl-N-[7-methoxy-2-(oxan-4-yl)imidazo[1,2-a]pyridin-6-yl]-2-oxopyridine-3-carboxamide)]
4 | > 5 | – | – | – | COc1cc2nc(C3CCOCC3)cn2cc1NC(=O)c1cccc(C(F)(F)F)n1 [Compound 2, N-(7-methoxy-2-tetrahydropyran-4-yl-imidazo[1,2-a]pyridin-6-yl)-6-(trifluoromethyl)pyridine-2-carboxamide]
5 | 0.0001 to 0.5 | 0.0001 to 0.5 | 103.95 | 101.5 | COc1cc2nc(C3COCCO3)cn2cc1NC(=O)c1cccn(C2CC2)c1=O (racemic) [Compound 1, 1-cyclopropyl-N-[2-(1,4-dioxan-2-yl)-7-methoxy-imidazo[1,2-a]pyridin-6-yl]-2-oxo-pyridine-3-carboxamide]
6 | 0.0001 to 0.5 | – | – | – | COc1cc2nc(C3COCCO3)cn2cc1NC(=O)c1cccn(C2CC2)c1=O (single isomer, unassigned) [Compound 7, 1-cyclopropyl-N-[2-(1,4-dioxan-2-yl)-7-methoxy-imidazo[1,2-a]pyridin-6-yl]-2-oxo-pyridine-3-carboxamide]
7 | 1 to 5 | – | – | – | NC(=O)c1cc2nc(C3COCCO3)cn2cc1NC(=O)c1cccc(C(F)(F)F)n1 (centres unmarked) [Compound 6, 2-(1,4-dioxan-2-yl)-6-[[6-(trifluoromethyl)pyridine-2-carbonyl]amino]imidazo[1,2-a]pyridine-7-carboxamide]
8 | 1 to 5 | – | 73.3 | 92.1 | CNC(=O)c1cc2nc(C3COCCO3)cn2cc1NC(=O)c1cccc(C(F)(F)F)n1 (centres unmarked) [Compound 9, 2-(1,4-dioxan-2-yl)-N-methyl-6-(6-(trifluoromethyl)picolinamido)imidazo[1,2-a]pyridine-7-carboxamide]
9 | 0.0001 to 0.5 | 0.0001 to 0.5 | – | – | COc1cc2nc(C3CCS(=O)(=O)CC3)cn2cc1NC(=O)c1cccn(C2CC2)c1=O [Compound 23, 1-cyclopropyl-N-(2-(1,1-dioxidotetrahydro-2H-thiopyran-4-yl)-7-methoxyimidazo[1,2-a]pyridin-6-yl)-2-oxo-1,2-dihydropyridine-3-carboxamide]
10 | 0.5 to 1 | 0.0001 to 0.5 | 80.6 | 99.15 | CC(F)(F)c1cccc(C(=O)Nc2cn3cc(C4COCCO4)nc3cc2C(N)=O)n1 (centres unmarked) [Compound 11, 6-(6-(1,1-difluoroethyl)picolinamido)-2-(1,4-dioxan-2-yl)imidazo[1,2-a]pyridine-7-carboxamide]
